Test results reported in patent publication US20230391768A2, “IMIDAZOPYRIDINE DERIVATIVES AND AZA-IMIDAZOPYRIDINE DERIVATIVES AS JANUS KINASE 2 INHIBITORS AND USES THEREOF” (Dana-Farber Cancer Institute, Inc., priority 2018, published 2023).

Columns and labels:
Assay in all cases: KINOMEscan
Assay type in all cases: binding
Settings in all cases: read-out: percent of control
[1] = target: ACVR1B (Homo sapiens (Human), UniProt P36896)
Description: (§1) In vitro profiling of Compound I-2 (1 μM) was performed using the DiscoveRx KINOMEscan® platform.

[2] = target: ALK(L1196M) (Homo sapiens (Human), UniProt Q9UM73, L1196M)
Description: as §1

[3] = target: AURKC (Homo sapiens (Human), UniProt Q9UQB9)
Description: as §1

[4] = target: BRAF (Homo sapiens (Human), UniProt P15056)
Description: as §1

[5] = target: CAMK2A (Homo sapiens (Human), UniProt Q9UQM7)
Description: as §1

[6] = target: CDKL1 (Homo sapiens (Human), UniProt Q00532)
Description: as §1

[7] = target: CDKL2 (Homo sapiens (Human), UniProt Q92772)
Description: as §1

[8] = target: CLK2 (Homo sapiens (Human), UniProt P49760)
Description: as §1

[9] = target: DMPK2 (Homo sapiens (Human), UniProt Q6DT37)
Description: as §1

[10] = target: EGFR(L858R) (Homo sapiens (Human), UniProt P00533, L858R)
Description: as §1

[11] = target: EIF2AK1 (Homo sapiens (Human), UniProt Q9BQI3)
Chain of EIF2AK1 (Q9BQI3 whole entry): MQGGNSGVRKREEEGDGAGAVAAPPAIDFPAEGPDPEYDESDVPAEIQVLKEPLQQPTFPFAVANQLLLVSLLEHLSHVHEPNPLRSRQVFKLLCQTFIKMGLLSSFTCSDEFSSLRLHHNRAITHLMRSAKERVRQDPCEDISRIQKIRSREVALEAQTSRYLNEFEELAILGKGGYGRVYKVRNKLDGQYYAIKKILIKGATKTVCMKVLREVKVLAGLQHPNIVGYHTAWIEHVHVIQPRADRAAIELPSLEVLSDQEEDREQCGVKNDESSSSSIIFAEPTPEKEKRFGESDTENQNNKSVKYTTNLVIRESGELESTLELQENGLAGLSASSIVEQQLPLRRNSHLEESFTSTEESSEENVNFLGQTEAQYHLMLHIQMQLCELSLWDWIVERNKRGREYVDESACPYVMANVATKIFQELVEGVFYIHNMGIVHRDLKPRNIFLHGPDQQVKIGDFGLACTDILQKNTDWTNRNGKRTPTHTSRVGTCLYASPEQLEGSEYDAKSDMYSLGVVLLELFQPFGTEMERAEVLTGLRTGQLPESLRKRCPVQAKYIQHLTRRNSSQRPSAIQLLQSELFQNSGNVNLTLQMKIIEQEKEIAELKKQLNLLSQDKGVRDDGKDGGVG
Description: as §1

[12] = target: EPHA4 (Homo sapiens (Human), UniProt P54764)
Description: as §1

[13] = target: EPHB 1 (Homo sapiens (Human), UniProt P54762)
Description: as §1

[14] = target: ERK3 (Homo sapiens (Human), UniProt Q16659)
Description: as §1

[15] = target: FAK (Homo sapiens (Human), UniProt Q05397)
Description: as §1

[16] = target: HIPK4 (Homo sapiens (Human), UniProt Q8NE63)
Description: as §1

[17] = target: IRAK3 (Homo sapiens (Human), UniProt Q9Y616)
Description: as §1

[18] = target: KIT(D816V) (Homo sapiens (Human), UniProt P10721, D816V)
Description: as §1

[19] = target: KIT(V559D) (Homo sapiens (Human), UniProt P10721, V559D)
Description: as §1

[20] = target: LKB1 (Homo sapiens (Human), UniProt Q15831)
Chain of LKB1 (Q15831 whole entry): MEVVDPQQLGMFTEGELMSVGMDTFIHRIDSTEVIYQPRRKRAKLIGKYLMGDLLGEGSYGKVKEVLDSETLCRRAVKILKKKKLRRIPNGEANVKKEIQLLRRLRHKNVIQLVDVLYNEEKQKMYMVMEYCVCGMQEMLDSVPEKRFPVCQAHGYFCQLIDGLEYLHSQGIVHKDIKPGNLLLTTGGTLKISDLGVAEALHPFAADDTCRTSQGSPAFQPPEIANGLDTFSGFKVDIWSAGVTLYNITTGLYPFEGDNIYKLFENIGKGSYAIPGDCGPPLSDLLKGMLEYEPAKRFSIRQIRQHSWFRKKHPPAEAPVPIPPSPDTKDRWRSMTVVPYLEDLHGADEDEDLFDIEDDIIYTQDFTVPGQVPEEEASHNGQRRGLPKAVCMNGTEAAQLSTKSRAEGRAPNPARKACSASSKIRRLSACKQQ
Description: as §1

[21] = target: MET(M1250T) (Homo sapiens (Human), UniProt P08581, M1250T)
Description: as §1

[22] = target: MLK1 (Homo sapiens (Human), UniProt P80192)
Description: as §1

[23] = target: MRCKA (Homo sapiens (Human), UniProt Q5VT25)
Description: as §1

[24] = target: MRCKB (Homo sapiens (Human), UniProt Q9Y5S2)
Chain of MRCKB (Q9Y5S2 whole entry): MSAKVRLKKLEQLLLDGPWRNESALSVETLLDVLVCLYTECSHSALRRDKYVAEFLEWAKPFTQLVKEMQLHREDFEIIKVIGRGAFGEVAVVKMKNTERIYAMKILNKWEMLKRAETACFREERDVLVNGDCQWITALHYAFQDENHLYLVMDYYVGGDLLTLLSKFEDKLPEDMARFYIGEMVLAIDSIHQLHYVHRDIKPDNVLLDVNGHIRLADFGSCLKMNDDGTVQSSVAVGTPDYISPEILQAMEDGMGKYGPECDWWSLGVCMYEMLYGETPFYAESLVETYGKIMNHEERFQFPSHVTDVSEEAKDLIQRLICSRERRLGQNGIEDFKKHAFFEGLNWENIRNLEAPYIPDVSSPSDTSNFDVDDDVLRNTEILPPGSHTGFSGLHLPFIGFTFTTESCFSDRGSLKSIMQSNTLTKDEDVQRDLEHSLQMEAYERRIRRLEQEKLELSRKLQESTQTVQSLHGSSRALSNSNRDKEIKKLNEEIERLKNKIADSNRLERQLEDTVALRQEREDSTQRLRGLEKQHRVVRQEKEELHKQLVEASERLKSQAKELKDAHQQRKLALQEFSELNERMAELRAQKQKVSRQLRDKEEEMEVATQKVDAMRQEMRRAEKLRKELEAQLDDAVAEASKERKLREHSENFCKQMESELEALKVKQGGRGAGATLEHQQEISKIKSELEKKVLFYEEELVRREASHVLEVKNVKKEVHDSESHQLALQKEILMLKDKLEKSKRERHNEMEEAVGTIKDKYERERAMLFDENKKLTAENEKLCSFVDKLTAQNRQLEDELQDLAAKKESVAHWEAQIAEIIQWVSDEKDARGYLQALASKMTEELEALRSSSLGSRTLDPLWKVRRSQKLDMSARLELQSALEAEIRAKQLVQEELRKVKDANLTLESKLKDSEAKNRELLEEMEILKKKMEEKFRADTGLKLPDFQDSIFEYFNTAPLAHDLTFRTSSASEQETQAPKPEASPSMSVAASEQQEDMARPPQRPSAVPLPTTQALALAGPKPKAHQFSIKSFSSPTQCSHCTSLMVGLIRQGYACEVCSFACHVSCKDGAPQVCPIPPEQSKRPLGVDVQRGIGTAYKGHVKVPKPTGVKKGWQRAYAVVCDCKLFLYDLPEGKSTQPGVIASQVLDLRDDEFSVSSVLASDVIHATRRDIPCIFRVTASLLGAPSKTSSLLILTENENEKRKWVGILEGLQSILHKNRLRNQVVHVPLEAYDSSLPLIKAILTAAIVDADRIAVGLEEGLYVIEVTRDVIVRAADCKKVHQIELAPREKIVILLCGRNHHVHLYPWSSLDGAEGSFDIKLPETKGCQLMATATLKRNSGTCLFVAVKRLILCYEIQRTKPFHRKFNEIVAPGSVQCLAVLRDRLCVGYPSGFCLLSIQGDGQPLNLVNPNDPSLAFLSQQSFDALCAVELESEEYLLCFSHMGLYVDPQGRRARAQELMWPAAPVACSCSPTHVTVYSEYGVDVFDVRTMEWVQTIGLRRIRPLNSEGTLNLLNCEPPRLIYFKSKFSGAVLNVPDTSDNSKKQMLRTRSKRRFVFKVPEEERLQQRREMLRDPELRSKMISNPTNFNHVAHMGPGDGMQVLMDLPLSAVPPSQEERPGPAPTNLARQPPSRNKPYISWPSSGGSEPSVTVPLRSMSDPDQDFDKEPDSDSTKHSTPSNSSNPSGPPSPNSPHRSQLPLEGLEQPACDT
Description: as §1

[25] = target: NEK6 (Homo sapiens (Human), UniProt Q9HC98)
Description: as §1

[26] = target: NEK7 (Homo sapiens (Human), UniProt Q8TDX7)
Chain of NEK7 (Q8TDX7 whole entry): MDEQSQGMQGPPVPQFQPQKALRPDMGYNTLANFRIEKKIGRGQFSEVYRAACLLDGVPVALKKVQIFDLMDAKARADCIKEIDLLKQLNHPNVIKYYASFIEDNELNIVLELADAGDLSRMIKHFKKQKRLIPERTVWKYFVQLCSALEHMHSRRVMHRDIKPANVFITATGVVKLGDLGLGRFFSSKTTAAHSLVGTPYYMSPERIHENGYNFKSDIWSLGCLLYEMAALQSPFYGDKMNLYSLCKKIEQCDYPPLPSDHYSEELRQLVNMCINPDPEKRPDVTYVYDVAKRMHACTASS
Description: as §1

[27] = target: PDPK1 (Homo sapiens (Human), UniProt O15530)
Chain of PDPK1 (O15530 whole entry): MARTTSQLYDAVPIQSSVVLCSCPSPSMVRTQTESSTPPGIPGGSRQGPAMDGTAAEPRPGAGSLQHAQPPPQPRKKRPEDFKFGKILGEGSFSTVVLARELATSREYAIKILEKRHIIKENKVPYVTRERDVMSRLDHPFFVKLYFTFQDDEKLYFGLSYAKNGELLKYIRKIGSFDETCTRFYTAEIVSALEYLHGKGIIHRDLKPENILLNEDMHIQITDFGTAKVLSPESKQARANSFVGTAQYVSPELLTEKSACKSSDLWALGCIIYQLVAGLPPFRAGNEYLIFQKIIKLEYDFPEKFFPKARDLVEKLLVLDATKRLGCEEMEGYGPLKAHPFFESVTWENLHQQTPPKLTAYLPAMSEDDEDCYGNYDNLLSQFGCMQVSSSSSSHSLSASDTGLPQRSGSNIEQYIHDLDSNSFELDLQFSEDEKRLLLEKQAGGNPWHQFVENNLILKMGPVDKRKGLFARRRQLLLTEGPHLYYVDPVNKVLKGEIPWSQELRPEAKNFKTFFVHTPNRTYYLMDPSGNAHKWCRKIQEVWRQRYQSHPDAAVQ
Description: as §1

[28] = target: PFTK1 (Homo sapiens (Human), UniProt O94921)
Description: as §1

[29] = target: PIK3CA(C420R) (Homo sapiens (Human), UniProt P42336, C420R)
Description: as §1

[30] = target: PKNB (M.tuberculosis) (Mycobacterium tuberculosis (strain ATCC 25618 / H37Rv), UniProt P9WI81)
Description: as §1

[31] = target: PLK2 (Homo sapiens (Human), UniProt Q9NYY3)
Description: as §1

[32] = target: RET (Homo sapiens (Human), UniProt P07949)
Description: as §1

[33] = target: RIOK3 (Homo sapiens (Human), UniProt O14730)
Description: as §1

[34] = target: SGK (Homo sapiens (Human), UniProt O00141)
Description: as §1

[35] = target: SGK2 (Homo sapiens (Human), UniProt Q9HBY8)
Chain of SGK2 (Q9HBY8 whole entry): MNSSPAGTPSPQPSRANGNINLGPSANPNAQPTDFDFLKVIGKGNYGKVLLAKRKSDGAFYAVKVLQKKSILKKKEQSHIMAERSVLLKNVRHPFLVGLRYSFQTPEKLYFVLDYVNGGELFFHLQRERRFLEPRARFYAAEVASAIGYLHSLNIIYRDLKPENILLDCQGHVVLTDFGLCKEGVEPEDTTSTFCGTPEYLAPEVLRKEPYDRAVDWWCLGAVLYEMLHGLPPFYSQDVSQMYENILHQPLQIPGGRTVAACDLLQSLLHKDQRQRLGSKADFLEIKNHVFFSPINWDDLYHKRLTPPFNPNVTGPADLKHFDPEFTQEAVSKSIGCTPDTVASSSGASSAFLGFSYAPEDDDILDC
Description: as §1

[36] = target: SRPK2 (Homo sapiens (Human), UniProt P78362)
Chain of SRPK2 (P78362 whole entry): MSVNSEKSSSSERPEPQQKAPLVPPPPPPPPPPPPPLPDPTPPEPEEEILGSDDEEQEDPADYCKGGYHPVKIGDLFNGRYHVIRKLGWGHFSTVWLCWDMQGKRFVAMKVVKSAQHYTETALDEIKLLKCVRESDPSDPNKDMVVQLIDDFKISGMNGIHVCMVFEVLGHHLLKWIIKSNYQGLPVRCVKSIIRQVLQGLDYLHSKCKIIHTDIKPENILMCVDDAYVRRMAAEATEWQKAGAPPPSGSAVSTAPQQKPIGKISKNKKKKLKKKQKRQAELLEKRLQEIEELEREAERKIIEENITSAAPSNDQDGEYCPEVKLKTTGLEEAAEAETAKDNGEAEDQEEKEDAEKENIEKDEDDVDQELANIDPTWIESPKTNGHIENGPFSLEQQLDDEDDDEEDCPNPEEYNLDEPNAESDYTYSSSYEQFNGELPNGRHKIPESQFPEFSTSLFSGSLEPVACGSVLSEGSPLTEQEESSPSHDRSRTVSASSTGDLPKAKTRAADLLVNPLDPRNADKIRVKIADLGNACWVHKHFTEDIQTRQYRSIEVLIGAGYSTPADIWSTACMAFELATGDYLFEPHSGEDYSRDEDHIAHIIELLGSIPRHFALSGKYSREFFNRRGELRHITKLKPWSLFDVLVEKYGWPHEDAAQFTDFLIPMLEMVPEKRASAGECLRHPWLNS
Description: as §1

[37] = target: TBK1 (Homo sapiens (Human), UniProt Q9UHD2)
Description: as §1

[38] = target: TYK2(JH2domainpseudokia (Homo sapiens (Human), UniProt P29597))
Chain of TYK2(JH2domainpseudokia (P29597 589-875): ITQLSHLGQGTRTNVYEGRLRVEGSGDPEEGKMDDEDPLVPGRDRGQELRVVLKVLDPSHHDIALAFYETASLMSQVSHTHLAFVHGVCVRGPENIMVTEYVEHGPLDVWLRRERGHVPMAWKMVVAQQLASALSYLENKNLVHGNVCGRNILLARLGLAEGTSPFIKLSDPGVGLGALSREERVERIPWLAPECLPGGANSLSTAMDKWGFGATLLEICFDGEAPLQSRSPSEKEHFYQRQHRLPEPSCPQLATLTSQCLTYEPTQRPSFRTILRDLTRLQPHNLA
Description: as §1

SMILES | remaining binding at 1 µM [1] [%] | remaining binding at 1 µM [2] [%] | remaining binding at 1 µM [3] [%] | remaining binding at 1 µM [4] [%] | remaining binding at 1 µM [5] [%] | remaining binding at 1 µM [6] [%] | remaining binding at 1 µM [7] [%] | remaining binding at 1 µM [8] [%] | remaining binding at 1 µM [9] [%] | remaining binding at 1 µM [10] [%] | remaining binding at 1 µM [11] [%] | remaining binding at 1 µM [12] [%] | remaining binding at 1 µM [13] [%] | remaining binding at 1 µM [14] [%] | remaining binding at 1 µM [15] [%] | remaining binding at 1 µM [16] [%] | remaining binding at 1 µM [17] [%] | remaining binding at 1 µM [18] [%] | remaining binding at 1 µM [19] [%] | remaining binding at 1 µM [20] [%] | further results
CCN1CCN(Cc2cc(NC(=O)c3ccc(C)c(-c4ccc5nc(NC(=O)C6CC6)cn5n4)c3)cc(C(F)(F)F)c2)CC1 [Compound I-2, 3-(2-(cyclopropanecarboxamido)imidazo[1,2-b]pyridazin-6-yl)-N-(3-((4-ethylpiperazin-1-yl)methyl)-5-(trifluoromethyl)phenyl)-4-methylbenzamide] | 99 | 9.9 | 84 | 11 | 100 | 40 | 0 | 48 | 87 | 76 | 100 | 0 | 0.65 | 89 | 1.9 | 32 | 90 | 32 | 0 | 73 | remaining binding at 1 µM [21]: 9.9%; remaining binding at 1 µM [22]: 75%; remaining binding at 1 µM [23]: 91%; remaining binding at 1 µM [24]: 100%; remaining binding at 1 µM [25]: 100%; remaining binding at 1 µM [26]: 99%; remaining binding at 1 µM [27]: 89%; remaining binding at 1 µM [28]: 0.35%; remaining binding at 1 µM [29]: 85%; remaining binding at 1 µM [30]: 78%; remaining binding at 1 µM [31]: 90%; remaining binding at 1 µM [32]: 0%; remaining binding at 1 µM [33]: 100%; remaining binding at 1 µM [34]: 83%; remaining binding at 1 µM [35]: 87%; remaining binding at 1 µM [36]: 73%; remaining binding at 1 µM [37]: 75%; remaining binding at 1 µM [38]: 80%
CCN1CCN(Cc2cc(NC(=O)c3ccc(C)c(-c4ccc5nc(NC(=O)C6CC6)cn5c4)c3)cc(C(F)(F)F)c2)CC1 [Compound I-6, 3-(2-(cyclopropanecarboxamido)imidazo[1,2-a]pyridin-6-yl)-N-(3-((4-ethylpiperazin-1-yl)methyl)-5-(trifluoromethyl)phenyl)-4-methylbenzamide] | 94 | 21 | 91 | 21 | 100 | 77 | 0.8 | 100 | 100 | 71 | 92 | 0 | 0.25 | 100 | 7.9 | 55 | 93 | 22 | 0.05 | 100 | remaining binding at 1 µM [21]: 42%; remaining binding at 1 µM [22]: 94%; remaining binding at 1 µM [23]: 100%; remaining binding at 1 µM [24]: 100%; remaining binding at 1 µM [25]: 100%; remaining binding at 1 µM [26]: 91%; remaining binding at 1 µM [27]: 83%; remaining binding at 1 µM [28]: 2.4%; remaining binding at 1 µM [29]: 95%; remaining binding at 1 µM [30]: 91%; remaining binding at 1 µM [31]: 96%; remaining binding at 1 µM [32]: 0%; remaining binding at 1 µM [33]: 90%; remaining binding at 1 µM [34]: 92%; remaining binding at 1 µM [35]: 76%; remaining binding at 1 µM [36]: 100%; remaining binding at 1 µM [37]: 96%; remaining binding at 1 µM [38]: 95%
